According to ChEMBL document CHEMBL5244273, “Tuberculosis: An Overview of the Immunogenic Response, Disease Progression, and Medicinal Chemistry Efforts in the Last Decade toward the Development of Potential Drugs for Extensively Drug-Resistant Tuberculosis Strains” (J Med Chem, 2021):
In brackets after ≈: the same amount, converted by molar mass.

What was measured:
[1] = test system: Mycobacterium tuberculosis; test: Antimycobacterial activity against Mycobacterium tuberculosis H37Rv; format: functional
[2] = Cytotoxicity against Chinese hamster CHO-K1 cells assessed as inhibition of cell growth; format: toxicity, cell-based, Cricetulus griseus
[3] = Selectivity index, ratio of IC50 for cytotoxicity against Chinese hamster CHO-K1 cells to MIC for antimycobacterial activity against Mycobacterium tuberculosis H37Rv; format: toxicity, cell-based; conditions: read-out: Selectivity Index
[4] = test system: HeLa; test: Cytotoxicity against human HeLa cells assessed as cell growth inhibition; format: functional
[5] = test system: MCF7; test: Cytotoxicity against human MCF7 cells assessed as cell growth inhibition; format: functional
[6] = Cytotoxicity against HUVEC cells assessed as cell growth inhibition; format: toxicity, cell-based; conditions: human
[7] = test system: Mycobacterium tuberculosis; test: Antitubercular activity against Mycobacterium tuberculosis H37Rv by resazurin microtitre assay; format: functional
[8] = test system: Mycobacterium tuberculosis; test: Antimycobacterial activity against non replicating Mycobacterium tuberculosis by broth dilution method; format: functional
[9] = test system: Mycobacterium tuberculosis; test: Antimycobacterial activity against Mycobacterium tuberculosis H37Rv ATCC 27294 by broth dilution method; format: functional
[10] = test system: J774; test: Cytotoxicity against mouse J774 cells incubated for 24 hrs by MTT assay; format: toxicity, cell-based; conditions: j774, 24 h
[11] = test system: Mycobacterium tuberculosis; test: Antitubercular activity against active stage of Mycobacterium tuberculosis H37Ra; format: functional
[12] = test system: Mycobacterium tuberculosis; test: Antitubercular activity against dormant stage of Mycobacterium tuberculosis H37Ra; format: functional
[13] = Selectivity index, ratio of GI50 for cytotoxicity against human HeLa cells to MIC for antitubercular activity against active stage of Mycobacterium tuberculosis H37Ra; format: toxicity, cell-based; conditions: read-out: Selectivity Index
[14] = Selectivity index, ratio of GI50 for cytotoxicity against human HeLa cells to MIC for antitubercular activity against dormant stage of Mycobacterium tuberculosis H37Ra; format: toxicity, cell-based; conditions: read-out: Selectivity Index
[15] = Selectivity index, ratio of GI50 for cytotoxicity against human MCF7 cells to MIC for antitubercular activity against active stage of Mycobacterium tuberculosis H37Ra; format: toxicity, cell-based; conditions: read-out: Selectivity Index
[16] = Selectivity index, ratio of GI50 for cytotoxicity against human MCF7 cells to MIC for antitubercular activity against dormant stage of Mycobacterium tuberculosis H37Ra; format: toxicity, cell-based; conditions: read-out: Selectivity Index
[17] = Selectivity index, ratio of GI50 for cytotoxicity against HUVEC cells to MIC for antitubercular activity against active stage of Mycobacterium tuberculosis H37Ra; format: toxicity, cell-based; conditions: human, read-out: Selectivity Index
[18] = Selectivity index, ratio of GI50 for cytotoxicity against HUVEC cells to MIC for antitubercular activity against dormant stage of Mycobacterium tuberculosis H37Ra; format: toxicity, cell-based; conditions: human, read-out: Selectivity Index
[19] = Cytotoxicity against HEK293T cells assessed as reduction in cell viability; format: toxicity, cell-based, HEK-293T; conditions: human

Sc1nnc(-c2ccc(I)cc2)o1
MIC [1]: 0.9 µg/mL (≈ 2.96 µM) | IC50 [2]: 46.7 µg/mL (≈ 154 µM) | selectivity ratio [3]: 51.8

Oc1ccc(-c2nnc(S)o2)cc1
MIC [1]: 0.6 µg/mL (≈ 3.09 µM) | selectivity ratio [3]: 39.6

CC(=O)O[C@H]1C(=O)[C@@]2(C)[C@H]([C@H](OC(=O)c3ccccc3)[C@]3(O)C[C@H](OC(=O)[C@H](O)[C@@H](NC(=O)c4ccccc4)c4ccccc4)C(C)=C1C3(C)C)[C@]1(OC(C)=O)CO[C@@H]1C[C@@H]2O [PACLITAXEL]
GI50 [4]: 0.0048 µg/mL (≈ 0.00562 µM) | GI50 [5]: 0.0021 µg/mL (≈ 0.00246 µM) | GI50 [6]: > 10 µg/mL

CC[C@@H](CO)NCCN[C@@H](CC)CO [ETHAMBUTOL]
MIC [7]: 0.78 µg/mL (≈ 3.82 µM)

Cc1ccccc1OCc1cn(C[C@@]2(C)Cn3cc([N+](=O)[O-])nc3O2)nn1
MIC [8]: 2 µg/mL (≈ 5.4 µM) | MIC [9]: 0.5 µg/mL (≈ 1.35 µM) | Activity [10]: > 40 µg/mL

C[C@]1(Cn2cc(COc3ccc(C(F)(F)F)cc3)nn2)Cn2cc([N+](=O)[O-])nc2O1
MIC [8]: 2 µg/mL (≈ 4.71 µM) | MIC [9]: 1 µg/mL (≈ 2.36 µM) | Activity [10]: > 40 µg/mL

COC(=O)c1sccc1NC(=O)[C@@H]1CCCN1
MIC [11]: 15.9 µg/mL (≈ 62.4 µM) | MIC [12]: 6.74 µg/mL (≈ 26.5 µM) | GI50 [4]: 90.4 µg/mL (≈ 355 µM) | GI50 [5]: 163 µg/mL (≈ 641 µM) | GI50 [6]: 91.3 µg/mL (≈ 359 µM) | selectivity ratio [13]: 5.7 | selectivity ratio [14]: 13.4 | selectivity ratio [15]: 10.3 | selectivity ratio [16]: 24.2 | selectivity ratio [17]: 5.75 | selectivity ratio [18]: 13.6

C=CCOC(=O)c1ccsc1NC(=O)[C@@H]1CCCN1
MIC [11]: 23.2 µg/mL (≈ 82.8 µM) | MIC [12]: 2.03 µg/mL (≈ 7.24 µM) | GI50 [4]: 94.9 µg/mL (≈ 338 µM) | GI50 [5]: 96.6 µg/mL (≈ 345 µM) | GI50 [6]: 149 µg/mL (≈ 531 µM) | selectivity ratio [13]: 4.08 | selectivity ratio [14]: 46.7 | selectivity ratio [15]: 4.16 | selectivity ratio [16]: 47.6 | selectivity ratio [17]: 6.41 | selectivity ratio [18]: 73.3

Sc1nnc(-c2cc3ccccc3[nH]2)o1
MIC [1]: 1.3 µg/mL (≈ 5.98 µM) | IC50 [2]: 21.6 µg/mL (≈ 99.4 µM) | selectivity ratio [3]: 16.6

O=C(OCc1ccccc1)c1ccsc1NC(=O)[C@@H]1CCCN1
MIC [11]: 21.1 µg/mL (≈ 63.9 µM) | MIC [12]: 3.76 µg/mL (≈ 11.4 µM) | GI50 [4]: > 250 µg/mL | GI50 [5]: > 250 µg/mL | GI50 [6]: > 250 µg/mL | selectivity ratio [13]: > 11.8 | selectivity ratio [14]: > 66.5 | selectivity ratio [15]: > 11.8 | selectivity ratio [16]: > 66.5 | selectivity ratio [17]: > 11.8 | selectivity ratio [18]: > 66.5

O=C(Oc1ccccc1)c1ccsc1NC(=O)[C@@H]1CCCN1
MIC [11]: 24.7 µg/mL (≈ 78.2 µM) | MIC [12]: 23.7 µg/mL (≈ 74.8 µM) | GI50 [4]: > 250 µg/mL | GI50 [5]: > 250 µg/mL | GI50 [6]: > 250 µg/mL | selectivity ratio [13]: > 10.1 | selectivity ratio [14]: > 10.6 | selectivity ratio [15]: > 10.1 | selectivity ratio [16]: > 10.6 | selectivity ratio [17]: > 10.1 | selectivity ratio [18]: > 10.6

C[C@]1(Cn2cc(COc3ccc(Br)cc3)nn2)Cn2cc([N+](=O)[O-])nc2O1
MIC [8]: 0.25 µg/mL (≈ 0.574 µM) | MIC [9]: 0.12 µg/mL (≈ 0.276 µM) | Activity [10]: > 40 µg/mL

C[C@]1(Cn2cc(-c3ccc(Oc4ccccc4)cc3)nn2)Cn2cc([N+](=O)[O-])nc2O1
MIC [8]: 2 µg/mL (≈ 4.78 µM) | MIC [9]: 2 µg/mL (≈ 4.78 µM) | Activity [10]: > 40 µg/mL

CC(=O)N1/C(=C/c2cccc(-c3cnc4ccccc4c3)c2)C(=O)c2ccccc21
MIC90 [1]: 2.65 µM (≈ 1.03 µg/mL) | MIC99 [1]: 3.13 µM (≈ 1.22 µg/mL) | CC50 [19]: 14 µM

CC(=O)N1/C(=C/c2cccc(-c3ccc(Cl)cc3)c2)C(=O)c2ccccc21
MIC90 [1]: 6.44 µM (≈ 2.41 µg/mL) | MIC99 [1]: 7.85 µM (≈ 2.93 µg/mL) | CC50 [19]: 4 µM

Cc1ccc(SCc2cn(C[C@@]3(C)Cn4cc([N+](=O)[O-])nc4O3)nn2)cc1
MIC [8]: 1 µg/mL (≈ 2.59 µM) | MIC [9]: 2 µg/mL (≈ 5.18 µM) | Activity [10]: > 40 µg/mL

CCCCCc1cn(C[C@@]2(C)Cn3cc([N+](=O)[O-])nc3O2)nn1
MIC [8]: 4 µg/mL (≈ 12.5 µM) | MIC [9]: 2 µg/mL (≈ 6.24 µM) | Activity [10]: > 40 µg/mL

C[C@]1(Cn2cc(COc3ccccc3F)nn2)Cn2cc([N+](=O)[O-])nc2O1
MIC [8]: 0.5 µg/mL (≈ 1.34 µM) | MIC [9]: 0.25 µg/mL (≈ 0.668 µM) | Activity [10]: > 40 µg/mL

CCc1ccc(OCc2cn(C[C@@]3(C)Cn4cc([N+](=O)[O-])nc4O3)nn2)cc1
MIC [8]: 2 µg/mL (≈ 5.2 µM) | MIC [9]: 2 µg/mL (≈ 5.2 µM) | Activity [10]: > 40 µg/mL

C[C@]1(Cn2cc(-c3ccc(OC(F)(F)F)cc3)nn2)Cn2cc([N+](=O)[O-])nc2O1
MIC [8]: 4 µg/mL (≈ 9.75 µM) | MIC [9]: 2 µg/mL (≈ 4.87 µM) | Activity [10]: > 40 µg/mL

CCOC(=O)c1ccsc1NC(=O)[C@@H]1CCCN1
MIC [11]: 9.08 µg/mL (≈ 33.8 µM) | MIC [12]: 7.62 µg/mL (≈ 28.4 µM) | GI50 [4]: 35.3 µg/mL (≈ 132 µM) | GI50 [5]: > 250 µg/mL | GI50 [6]: > 250 µg/mL | selectivity ratio [13]: 3.88 | selectivity ratio [14]: 4.63 | selectivity ratio [15]: > 27.5 | selectivity ratio [16]: > 32.8 | selectivity ratio [17]: > 27.5 | selectivity ratio [18]: > 32.8
